Test results published in patent publication US6310247A, “7-aryl-6(Z)-heptatrienoic acid retinamides” (Hoffmann-LA Roche Inc., priority 1999, dated 2001).
Read-outs that look alike come from different tables or passages of the source.

Tests used:
Format in all cases: cell-based
MDA 231 cells = assay: Cell growth inhibition: MTT assay, MDA 231 (ER- breast carcinoma); conditions: Homo sapiens, MDA-MB-231, read-out: % inhibition of cell growth compared to no drug control
Method: ER- breast carcinoma, human (MDA-231) obtained from ATCC (HTB 22), were grown in Eagle's MEM medium supplemented with non-essential amino acids, sodium pyruvate, and Earle's BSS, 10% FBS, and 13 ng/mL gentamicin. Cells were incubated at 37° C., 4.5% CO2 and 95.5% humidified air.
(§1) 1. Cell growth inhibition: MTT Assay
(§2) The compounds of formula 1 were tested for ability to inhibit cell growth using the standard MTT assay, a tetrazolium-based assay which measures the viability of cells in culture. Cells were harvested upon reaching 70-80% confluency and pelleted. The cells were then resuspended in medium in which FBS was replaced with Hyclone's Charcoal/Dextran stripped FBS, and seeded (2 mL/well) into 6-well plates (Corning) at a density allowing for linear growth over a four day assay period. Compounds of formula 1 (10 mM stock in dimethylsulfoxide (DMSO)) were added 18-24 hours post-seeding. Compound dilutions were prepared in the appropriate growth media and added to the cells for final concentrations of 10, 3.3 and 1 μM in 0.1% DMSO. At 24, 48 and 72 hr. time points, MTT (3-[4,5-dimethylthiazol-2-yl-2,5-diphenyltetrazolium bromide) stock solution (5mg/mL in 1 PBS) was added to the cells plates (625 μL/well) which were then incubated for 2.5 hours. Liquid was aspirated from the wells and 1 mL/well of 95% ethanol was added to solubilize the formazan reaction product. The plates were shaken (Bellco Mini-Orbital Shaker) for 15 minutes. The solubilized formazan was then transferred (50 μls) into a 96-well plate and the optical densities (OD) were measured (Bio-Tek Microplate Reader) at 570 nm and reference wavelength of 660 nm. Percentage of inhibition of cell growth was calculated according to the following formula: [formula]

MDA 435 cells = assay: Cell growth inhibition: MTT assay, MDA 435 (ER- breast carcinoma); conditions: Homo sapiens, MDA435, read-out: % inhibition of cell growth compared to no drug control
Method: ER- breast carcinoma, human (MDA-435) obtained from Dr. Janet Price, MDA Cancer Center, Houston, Tex., were grown in Gibco's RPMI 1640 media supplemented with sodium pyruvate, 10% FBS and 13 ng/mL gentamicin. Cells were incubated at 37° C., 4.5% CO2 and 95.5% humidified air.
as §1, §2

ZR-75-1 cells = assay: Cell growth inhibition: MTT assay, ZR-75-1 (ER+ breast carcinoma); conditions: Homo sapiens, read-out: % inhibition of cell growth compared to no drug control
Method: ER+ breast carcinoma, human (ZR-75-1) obtained from ATCC (CRL 1500), were grown in Gibco's RPMI 1640 media supplemented with sodium pyruvate, 10% FBS and 13 ng/mL gentamicin. Cells were incubated at 37° C., 4.5% CO2 and 95.5% humidified air.
as §1, §2

Row | Structure (SMILES) | inhibition at 1 µM (MDA 231 cells; 24 hours) [%] | inhibition at 3.3 µM (MDA 231 cells; 24 hours) [%] | inhibition at 10 µM (MDA 231 cells; 24 hours) [%] | inhibition at 1 µM (MDA 231 cells; 48 hours) [%] | inhibition at 3.3 µM (MDA 231 cells; 48 hours) [%] | inhibition at 10 µM (MDA 231 cells; 48 hours) [%] | inhibition at 1 µM (MDA 231 cells; 72 hours) [%] | inhibition at 3.3 µM (MDA 231 cells; 72 hours) [%] | inhibition at 10 µM (MDA 231 cells; 72 hours) [%] | inhibition at 1 µM (MDA 435 cells; 24 hours) [%] | inhibition at 3.3 µM (MDA 435 cells; 24 hours) [%] | inhibition at 10 µM (MDA 435 cells; 24 hours) [%] | inhibition at 1 µM (MDA 435 cells; 48 hours) [%] | inhibition at 3.3 µM (MDA 435 cells; 48 hours) [%] | inhibition at 10 µM (MDA 435 cells; 48 hours) [%] | inhibition at 1 µM (MDA 435 cells; 72 hours) [%] | inhibition at 3.3 µM (MDA 435 cells; 72 hours) [%] | inhibition at 10 µM (MDA 435 cells; 72 hours) [%] | other results
1 | C/C(=C/C=C/C(C)=C/C(=O)Nc1ccc(O)cc1)c1cc(Br)cc(Br)c1 [N-(4-hydroxyphenyl)-(2E,4E,6Z)-7-(3,5-dibromophenyl)-3,7-dimethyl-2,4,6-heptatrienamide] | 6 | 65 | 65 | 72 | 81 | 82 | 78 | 86 | 87 | 27 | 28 | 37 | 70 | 66 | 70 | 86 | 88 | 87 | 
2 | C/C(=C/C=C/C(C)=C/C(=O)Nc1ccc(O)cc1)c1ccccc1 [N-(4-hydroxyphenyl)-(2E,4E,6Z)-7-phenyl-3,7-dimethyl-2,4,6-heptatrienamide] | 45 | 57 | 58 | 67 | 80 | 81 | 76 | 87 | 88 | 3 | 3 | 2 | 39 | 40 | 42 | 41 | 51 | 68 | 
3 | COc1cc(OC)cc(\C(C)=C/C=C/C(C)=C/C(=O)Nc2ccc(O)cc2)c1 [N-(4-hydroxyphenyl)-(2E,4E,6Z)-7-(3,5-dimethoxyphenyl)-3,7-dimethyl-2,4,6-heptatrienamide] | 18 | 21 | 30 | 30 | 52 | 65 | 25 | 61 | 64 | 21 | 36 | 25 | 64 | 61 | 61 | 86 | 87 | 87 | 
4 | CC(/C=C/C(C)=C/C(=O)Nc1ccc(O)cc1)=C(\C)c1cc(C(F)(F)F)cc(C(F)(F)F)c1 [N-(4-hydroxyphenyl)-(2E,4E,6Z)-7-[3,5-bis(trifluoromethyl)phenyl]-3,6,7-trimethyl-2,4,6-heptatrienamide] | 0 | 0 | 40 | 0 | 0 | 57 | 38 | 48 | 76 | 3 | 67 | 68 | 3 | 95 | 96 | 4 | 98 | 99 | inhibition at 1 µM (ZR-75-1 cells; 48 hours): 3%; inhibition at 3.3 µM (ZR-75-1 cells; 48 hours): 0%; inhibition at 10 µM (ZR-75-1 cells; 48 hours): 60%; inhibition at 1 µM (ZR-75-1 cells; 72 hours): 16%; inhibition at 3.3 µM (ZR-75-1 cells; 72 hours): 10%; inhibition at 10 µM (ZR-75-1 cells; 72 hours): 80%
5 | C/C(=C/C=C/C(C)=C/C(=O)Nc1ccc(O)cc1)c1cc(C)cc(C)c1 [N-(4-hydroxyphenyl)-(2E,4E,6Z)-7-(3,5-dimethylphenyl)-3,7-dimethyl-2,4,6-heptatrienamide] | 50 | 51 | 58 | 60 | 70 | 72 | 81 | 82 | 85 | 56 | 53 | 53 | 95 | 92 | 98 | 95 | 94 | 91 | 
6 | CC(/C=C/C=C\c1cc(C(F)(F)F)cc(C(F)(F)F)c1)=C\C(=O)Nc1ccc(O)cc1 [N-(4-hydroxyphenyl)-(2E,4E,6Z)-7-[3,5-bis(trifluoromethyl)phenyl]-3-methyl-2,4,6-heptatrienamide] | 22 | 33 | 37 | 42 | 51 | 50 | 50 | 68 | 73 | 19 | 81 | 91 | 45 | 93 | 99 | 73 | 83 | 100 | 
